US10821151B2, “Compositions and methods for treating cancer and persistent viral infections” (SUSAVION BIOSCIENCES, INC., priority 2015, dated 2020)
Positions of bridges follow the written chain, without caps; N, C: chain ends. Chains are numbered I, II in the order given. No end group written: not given here.

Legend:
NKG2D = molecular target: T1, NKG2D (Homo sapiens, UniProt P26718); experiment: solid-phase binding assay with Fc-chimeric NKG2D; details: for inhibition of binding of SVH1C to NKG2D: fetuin 5, 10, 30 μM, sialyllactose 12, 20, 40 μM
T1 sequence (P26718 78-216 limits assumed): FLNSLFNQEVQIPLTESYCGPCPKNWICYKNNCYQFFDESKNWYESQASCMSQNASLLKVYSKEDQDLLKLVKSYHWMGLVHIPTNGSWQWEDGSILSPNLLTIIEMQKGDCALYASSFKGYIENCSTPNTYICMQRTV

MTS cell viability assay = format: cell-based; details: human, human PBMCs; 3 days, peptide alone or with diluted anti-HIV antiserum, 1 nM to 1 μM
Experimental: (§1) Human PBMCs were incubated 3 days with peptides and then assay plates were stained with the soluble tetrazolium-based dye MTS to determine cell viability. The mitochondrial enzymes of metabolically active cells metabolize MTS to yield a colored formazan product. After an incubation period of 4 to 6 h at 37° C., the plates were read spectrophotometrically. Cells treated with peptide SVH1C alone or with diluted anti-HIV antiserum were 100±2% viable at peptide concentrations of 1 nM to 1 μM. In another assay to determine cytotoxicity, cells were doubly stained with acridine orange and ethidium bromide. In this assay, viable cells fluoresce green while dead cells fluoresce red.

cells = experiment: acridine orange / ethidium bromide cytotoxicity assay; format: cell-based; details: 1 mM
Experimental: as §1

CLEC9a = CLEC9a (Homo sapiens, UniProt Q6UXN8); experiment: solid-phase binding assay
Chain of CLEC9a (Q6UXN8 whole entry): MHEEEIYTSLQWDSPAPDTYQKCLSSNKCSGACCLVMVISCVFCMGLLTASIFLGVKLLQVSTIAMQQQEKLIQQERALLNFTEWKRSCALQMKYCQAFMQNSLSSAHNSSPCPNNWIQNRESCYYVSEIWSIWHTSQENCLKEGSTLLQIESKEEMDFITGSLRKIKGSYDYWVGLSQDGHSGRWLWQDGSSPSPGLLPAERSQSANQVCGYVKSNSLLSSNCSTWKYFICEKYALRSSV
Experimental: (§2) The buffer in these assays was PBS containing 0.05% Tween-20. […] The receptors were Fc-chimeras and were assayed in protein A/G-coated microtiter wells. Siglec-1 and CLEC10a contained a C-terminal His tag and were assayed in a separate experiment with Ni-coated wells. SEM was determined from four independent experiments run in duplicate. Inhibition by fetuin is shown by the average of two assays in which the glycoprotein was added at 10 μM (second, black bar) or 30 μM (third, light grey bar) in each receptor group. Binding was measured by a colorimetric assay of peroxidase.
(§3) The buffer in these assays was PBS containing 0.05% Tween-20. […] The receptors were Fc-chimeras and were assayed in protein A/G-coated microtiter wells. The assay was similar to that described under FIG. 7.
(§4) Biotinylated peptides were then incubated with the receptors, the wells were stringently washed and the bound peptide was detected by binding of streptavidin conjugated with peroxidase.

CLEC10a = molecular target: T2, CLEC10a (Homo sapiens, UniProt Q8IUN9); experiment: solid-phase binding assay
T2 sequence (Q8IUN9 1-316): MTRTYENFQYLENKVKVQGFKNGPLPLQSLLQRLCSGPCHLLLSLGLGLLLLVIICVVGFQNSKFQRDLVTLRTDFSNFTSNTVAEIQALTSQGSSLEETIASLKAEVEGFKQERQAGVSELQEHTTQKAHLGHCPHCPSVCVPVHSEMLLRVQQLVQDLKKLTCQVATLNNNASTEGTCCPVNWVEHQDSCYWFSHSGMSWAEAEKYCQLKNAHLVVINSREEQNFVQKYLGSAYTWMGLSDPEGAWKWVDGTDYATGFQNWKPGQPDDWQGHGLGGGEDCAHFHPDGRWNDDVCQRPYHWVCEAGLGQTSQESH
Experimental: as §2, §3, §4

DC-SIGN = molecular target: T3, DC-SIGN (Homo sapiens, UniProt Q9NNX6); experiment: solid-phase binding assay
T3 sequence (Q9NNX6 1-404): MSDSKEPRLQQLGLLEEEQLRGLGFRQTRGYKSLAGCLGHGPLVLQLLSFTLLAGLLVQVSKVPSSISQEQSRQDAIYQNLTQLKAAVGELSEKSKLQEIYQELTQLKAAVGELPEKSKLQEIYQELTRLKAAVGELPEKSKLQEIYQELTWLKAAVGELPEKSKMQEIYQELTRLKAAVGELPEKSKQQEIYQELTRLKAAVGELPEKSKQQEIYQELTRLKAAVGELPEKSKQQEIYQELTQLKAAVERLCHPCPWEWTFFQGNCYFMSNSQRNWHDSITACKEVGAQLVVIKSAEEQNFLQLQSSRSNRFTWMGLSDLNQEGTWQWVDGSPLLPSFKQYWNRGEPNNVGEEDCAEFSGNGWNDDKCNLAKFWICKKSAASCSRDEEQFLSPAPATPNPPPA
Experimental: as §2, §3, §4

langerin = langerin (Homo sapiens, UniProt Q9UJ71); experiment: solid-phase binding assay
Chain of langerin (Q9UJ71 whole entry): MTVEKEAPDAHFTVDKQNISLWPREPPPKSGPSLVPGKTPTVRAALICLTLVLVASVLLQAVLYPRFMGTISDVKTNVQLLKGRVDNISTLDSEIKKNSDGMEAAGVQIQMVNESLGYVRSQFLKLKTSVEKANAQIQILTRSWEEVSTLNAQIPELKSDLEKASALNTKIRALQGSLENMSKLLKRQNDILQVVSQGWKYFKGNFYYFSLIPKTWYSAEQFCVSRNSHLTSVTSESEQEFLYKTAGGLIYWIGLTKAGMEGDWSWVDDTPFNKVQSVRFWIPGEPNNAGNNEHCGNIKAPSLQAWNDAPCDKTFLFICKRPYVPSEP
Experimental: (§5) The buffer in these assays was PBS containing 0.05% Tween-20. […] The receptors were Fc-chimeras and were assayed in protein A/G-coated microtiter wells.
as §4

ASGPR-1 = molecular target: T4, ASGPR-1 (Homo sapiens, UniProt P07306); experiment: solid-phase binding assay
T4 sequence (P07306 1-291): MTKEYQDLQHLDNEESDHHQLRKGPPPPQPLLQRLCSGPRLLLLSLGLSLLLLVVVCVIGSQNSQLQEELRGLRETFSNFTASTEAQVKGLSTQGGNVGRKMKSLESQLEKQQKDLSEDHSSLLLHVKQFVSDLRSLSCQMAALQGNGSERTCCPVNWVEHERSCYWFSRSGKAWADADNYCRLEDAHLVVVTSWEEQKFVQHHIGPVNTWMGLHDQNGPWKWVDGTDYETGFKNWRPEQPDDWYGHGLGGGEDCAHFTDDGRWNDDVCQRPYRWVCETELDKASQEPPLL
Experimental: as §5, §4

dectin-1 = molecular target: T5, dectin-1 (Homo sapiens, UniProt Q9BXN2); experiment: solid-phase binding assay
T5 sequence (Q9BXN2 1-247): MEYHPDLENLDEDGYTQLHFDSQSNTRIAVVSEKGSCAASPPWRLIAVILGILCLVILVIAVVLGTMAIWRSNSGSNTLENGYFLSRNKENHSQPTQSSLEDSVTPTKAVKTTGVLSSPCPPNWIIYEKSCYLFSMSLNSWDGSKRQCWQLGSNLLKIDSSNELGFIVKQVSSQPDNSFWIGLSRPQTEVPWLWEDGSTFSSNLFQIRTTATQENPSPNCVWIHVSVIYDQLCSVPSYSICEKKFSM
Experimental: as §5, §4

Siglec-1 = Siglec-1 (Homo sapiens, UniProt Q9BZZ2); experiment: solid-phase binding assay
Chain of Siglec-1 (Q9BZZ2 20-1709): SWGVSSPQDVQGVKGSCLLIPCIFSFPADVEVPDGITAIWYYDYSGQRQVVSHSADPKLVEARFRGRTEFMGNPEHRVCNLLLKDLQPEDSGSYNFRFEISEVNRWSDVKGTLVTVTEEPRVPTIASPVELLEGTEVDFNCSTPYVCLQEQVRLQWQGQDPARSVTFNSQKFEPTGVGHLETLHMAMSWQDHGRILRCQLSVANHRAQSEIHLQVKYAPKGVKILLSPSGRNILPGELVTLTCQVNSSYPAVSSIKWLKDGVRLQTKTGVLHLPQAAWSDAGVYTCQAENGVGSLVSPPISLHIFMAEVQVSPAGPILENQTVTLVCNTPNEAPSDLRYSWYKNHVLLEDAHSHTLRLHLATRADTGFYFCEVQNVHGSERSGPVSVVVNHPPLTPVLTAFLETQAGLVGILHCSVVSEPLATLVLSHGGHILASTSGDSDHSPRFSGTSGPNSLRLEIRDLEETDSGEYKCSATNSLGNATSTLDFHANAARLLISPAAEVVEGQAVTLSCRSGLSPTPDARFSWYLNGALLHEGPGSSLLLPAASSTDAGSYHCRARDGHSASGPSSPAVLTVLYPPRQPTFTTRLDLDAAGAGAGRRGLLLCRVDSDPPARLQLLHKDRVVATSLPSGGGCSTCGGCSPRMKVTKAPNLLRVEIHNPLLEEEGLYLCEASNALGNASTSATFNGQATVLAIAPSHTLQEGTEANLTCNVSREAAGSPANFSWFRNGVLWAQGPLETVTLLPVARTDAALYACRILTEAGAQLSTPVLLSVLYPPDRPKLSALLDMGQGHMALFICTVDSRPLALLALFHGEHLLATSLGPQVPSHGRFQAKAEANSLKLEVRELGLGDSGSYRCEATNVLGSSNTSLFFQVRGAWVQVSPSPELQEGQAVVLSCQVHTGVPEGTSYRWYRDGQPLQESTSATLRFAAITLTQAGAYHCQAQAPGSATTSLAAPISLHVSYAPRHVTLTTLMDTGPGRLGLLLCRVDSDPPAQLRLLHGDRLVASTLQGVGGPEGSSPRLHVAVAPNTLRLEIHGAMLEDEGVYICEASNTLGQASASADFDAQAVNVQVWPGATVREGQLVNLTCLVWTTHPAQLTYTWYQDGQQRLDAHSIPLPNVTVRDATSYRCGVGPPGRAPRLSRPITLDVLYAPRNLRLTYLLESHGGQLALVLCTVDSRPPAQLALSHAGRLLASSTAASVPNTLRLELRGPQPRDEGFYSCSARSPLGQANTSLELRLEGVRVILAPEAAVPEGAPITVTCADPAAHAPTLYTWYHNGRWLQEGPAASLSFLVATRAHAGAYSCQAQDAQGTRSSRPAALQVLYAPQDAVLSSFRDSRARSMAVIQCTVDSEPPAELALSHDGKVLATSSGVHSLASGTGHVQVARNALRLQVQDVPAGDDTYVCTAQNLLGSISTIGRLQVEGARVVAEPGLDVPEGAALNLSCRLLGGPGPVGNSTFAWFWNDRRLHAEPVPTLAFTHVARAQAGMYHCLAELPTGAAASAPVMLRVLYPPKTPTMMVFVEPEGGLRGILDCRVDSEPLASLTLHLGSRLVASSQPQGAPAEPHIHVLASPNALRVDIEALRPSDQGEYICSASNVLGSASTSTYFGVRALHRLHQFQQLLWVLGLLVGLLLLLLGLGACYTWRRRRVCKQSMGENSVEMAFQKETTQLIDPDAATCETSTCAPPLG
Experimental: as §5, §4

ovarian cancer cell line = experiment: mouse model of ovarian cancer, ascites monitored by body weight
Experimental: Body weights of individual mice were measured during treatment with 1 or 0.1 nmole/g doses of SV6D (SEQ ID NO:5) injected subcutaneously every other day.
In a mouse model of ovarian cancer, a cancer cell line was implanted into the peritoneal cavity. The cells form tumors and in time also release malignant cells into the cavity. The activity of SV6D to treat ovarian cancer was tested by alternate-day injections of 1 and 0.1 nanomole per gram of SV6D. Development of ascites was monitored by an increase in body weight of the animals.

siglecs = experiment: solid-phase binding assay, biotinylated peptide, streptavidin-peroxidase; details: fetuin added at 10 μM or 30 μM
Experimental: The buffer in these assays was PBS containing 0.05% Tween-20. […] The receptors were Fc-chimeras and were assayed in protein A/G-coated microtiter wells. Siglec-1 and CLEC10a contained a C-terminal His tag and were assayed in a separate experiment with Ni-coated wells. SEM was determined from four independent experiments run in duplicate. […] Binding was measured by a colorimetric assay of peroxidase.

I: NPSHPLSGGGGSKK-NH2 / II: NPSHPLSGGGGSK / III: NPSHPLSGGGGS / IV: NPSHPLSGGGGS (amide I:13-IV:C, I:14-II:C, II:13-III:C) [SVH1C, [NPSHPLSGGGGS]4K3-NH2]
Kd (NKG2D): ~1000 nM
viability at 72 h (MTS cell viability assay): 100 ± 2%
cytotoxicity (cells): did not exhibit cytotoxicity

[NQHTPRGGGS]4K3-NH2 [SV6D]
binding to CLEC9a (CLEC9a): not
binding to CLEC10a (CLEC10a): bound strongly
binding to DC-SIGN (DC-SIGN): not
binding to langerin (langerin): bound strongly
binding to ASGPR-1 (ASGPR-1): bound strongly
binding to dectin-1 (dectin-1): bound strongly
binding to Siglec-1 (Siglec-1): not
progression of ascites (ovarian cancer cell line): effectively inhibited

fetuin
inhibition of binding of SVH1C to NKG2D (NKG2D): inhibited
inhibition of binding of SVH1C to siglecs (siglecs): inhibited

sialyllactose
inhibition of binding of SVH1C to NKG2D (NKG2D): inhibited
